Measured values taken from patent US7855076B2, “Use of discoidin domain receptor 1 (DDR1) and agents that affect the DDR1/collagen pathway” (The United States of America as represented by the …, priority 2002, dated 2010).

How the values were obtained:
Type in all cases: cell-based, human
THP-1 cells = assay: Cytokine and chemokine release from PMA-treated THP-1 cells by ELISA
Protocol: The production of DDR1a- or 1b-overexpressing THP-1 cells was previously described (Kamohara et al., FASEB J. 15:2724, 2001). Briefly, the human monocytic leukemic cell line, THP-1, was transduced with control retrovirus containing the vector only (mock-transduced) or retrovirus expressing DDR1a or DDR1b. THP-1 cells transduced by each virus were selected with G418, and cloned by limiting dilution. The cloned THP-1 cells were maintained in RPMI 1640 medium supplemented with 100 μg/ml gentamycin and 10% FCS (complete medium). Cells were plated at 1×10^6/ml and treated with PMA (10 nM) for variable times on uncoated or collagen-coated tissue culture plates for quantification of cytokine or chemokine release.
In addition, the concentration of MCP-1 in the culture supernatant of each cell line was measured by ELISA. The concentration of MCP-1 was measured in the Lymphokine Testing Laboratory, Clinical Services Program, SAIC-Frederick (Frederick, Md.) by using an enzyme-linked immunosorbent assay (ELISA) kit (R&D Systems, Minneapolis, Minn.) specific for the chemokine.
In addition, the concentrations of IL-1β, IL-8, and MIP-1α in the culture supernatants of each cell line were quantified by ELISA (FIG. 6). The concentration of IL-1β, IL-8, and MIP-1α were measured in the Lymphokine Testing Laboratory, Clinical Services Program, SAIC-Frederick (Frederick, Md.) by using enzyme-linked immunosorbent assay (ELISA) kits (R&D Systems, Minneapolis, Minn.) specific for each human cytokine and chemokine. […]

[1] = system: monocyte-derived dendritic cells; assay: Allogeneic MLR with monocyte-derived DCs
Protocol: FIG. 9 is a graph showing the effect of DDR1 antibody on the antigen presenting capacity of DCs.
The most important function of DCs is to present antigens to naïve T cells. […] Human T cells were purified from PBMCs of healthy donors by magnetic separation using CD3^+microbeads (Miltenyi Biotech Inc., Auburn, Calif.). T cells (1×10^5) were placed in 96-well plates with increasing numbers of DC (5×10^2−1×10^4 cells) in 200 μl culture medium. On day four, 1 μCi/well of [^3H]thymidine was added, and incorporation of radioactivity was measured after 15 hours of incubation. All tests were performed in triplicate.

NF-κB [2] = assay: NF-κB luciferase reporter assay in THP-1 cells; conditions: DDR1b-overexpressing cells
Protocol: For the results shown in FIG. 7A, mock-transduced or DDR1b-overexpressing THP-1 cells were transfected with 10 μg of the NF-κB-Luc plasmid and 5 μg of pSV-β-galactosidese plasmid DNA (Promega, Madison, Wis.) per 100-mm tissue culture plate using Effectene Transfection Reagent (Qiagen, Valencia, Calif.), according to the manufacture's protocol. After a 12-hour incubation, cells were rinsed with phosphate buffered saline (PBS) and then incubated with 10 nM PMA on collagen-coated plates in the presence of absence of SB203580, PD98059, CAPE or dimethlysulfoxide (DMSO) for another 12 hours. Cells were collected and lysed using the Reporter Lysis Buffer (Promega, Madison, Wis.), and luciferase activity and β-galactosidase activities were measured according to the protocol provided by the manufacturer. The resulting luciferase activity was corrected based on the β-galactosidase activity in the same cell extract. For the results shown in FIG. 7B, DDR1b-overexpressing THP-1 cells were transfected with 10 μg of the pGLM-ENH, or pGLM-MA1MA2 (Ueda et al., J. Bio. Chem. 272: 31092-9, 1997) and 5 μg of pSV-β-galactosidese plasmid DNA (Promega, Madison, Wis.) per 100-mm tissue culture plate using Effectene Transfection Reagent (Qiagen, Valencia, Calif.) according to the manufacture's protocol. […] Cells were collected and lysed using the Reporter Lysis Buffer (Promega, Madison, Wis.), and luciferase activity and β-galactosidase activities were measured according to the protocol provided by the manufacturer. […]
Mock-transduced or DDR1b-overexpressing THP-1 cells were transfected with 10 μg of the NF-κB-Luc plasmid, pGL-ENH, or pGL-MA1MA2 and 5 μg of pSV-β-galactosidase plasmid DNA (Promega, Madison, Wis.) per 100-mm tissue culture plate using Effectene Transfection Reagent (Qiagen, Valencia, Calif.) according to the manufacture's protocol. […] Luciferase activity and β-galactosidase activities were measured according to the protocol provided by the manufacturer. […]

NF-κB [3] = assay: Nuclear translocation of NF-κB by EMSA; conditions: DDR1b-overexpressing cells on collagen-coated plates
Protocol: Nuclear translocation of NF-κB was examined by EMSA. Nuclear extracts were prepared by a method previously reported (Ueda et al., J. Biol. Chem. 272:31092, 1997), and aliquots were frozen at −80° C. For EMSA, end-labeled ^32P-oligonucleotide probes corresponding to the NF-KB binding site of the Ig κ-chain (5′-[…]-3′) (SEQ ID NO: 15) or MCP-1 (A2 site; 5′-[…]-3′) (SEQ ID NO: 16) gene were used. Each probe was incubated with 5 μg of nuclear extracts in 20 μl of binding cocktail (50 mM Tris-HCl, pH 7.4, 25 MM MgCl2, 0.5 mM DTT, 50% glycerol) at 4° C. for 15 minutes. The DNA-protein complexes were resolved on a 5% polyacrylanide gel. The dried gels were exposed to X-ray films.

[4] = DDR1b-overexpressing THP-1 cells, PMA, collagen-coated plates, 48 hours

Molecule: C[S+]([O-])c1ccc(-c2nc(-c3ccncc3)c(-c3ccc(F)cc3)[nH]2)cc1 (centres unmarked) [SB203580]
- collagen-induced up-regulation of IL-1β release (THP-1 cells; [4]): inhibited
- collagen-induced up-regulation of IL-8 release (THP-1 cells; [4]): inhibited
- collagen-induced up-regulation of MCP-1 release (THP-1 cells; [4]): inhibited
- collagen-induced up-regulation of MIP-1α release (THP-1 cells; [4]): inhibited
- capacity to activate allogeneic MLR of TNF-α-induced DCs and its up-regulation by DDR1 activation [1]: almost completely abrogated
- increase in luciferase activity induced by PMA plus collagen (NF-κB [2]; 12 hours): dose-dependently inhibited
- increased NF-κB/DNA binding (NF-κB [3]): not affected

Molecule: TNF-α
- allogeneic MLR by induced mDCs ([1]; cell number-dependent): markedly activated

Molecule: collagen
- increase of MCP-1 released on collagen-coated plates (THP-1 cells; PMA-treated DDR1b-overexpressing cells): approximately 7 fold
- luciferase activity (NF-κB [2]; PMA plus collagen, NF-κB-Luc plasmid): markedly increased
- amount of NF-κB/DNA complex (NF-κB [3]): significantly increased
